Experimental data published in paper PMC6800369 (Proceedings of the National Academy of Sciences of the …, 2019).

Experiments:
PRK = molecular target: T1, PRK (Thermosynechococcus vestitus, UniProt Q8DHN2); experiment: ADP production, coupled assay with ADP-hexokinase; type: biochemical; conditions: ternary complex reduced with DTT
T1 sequence (Q8DHN2 1-334): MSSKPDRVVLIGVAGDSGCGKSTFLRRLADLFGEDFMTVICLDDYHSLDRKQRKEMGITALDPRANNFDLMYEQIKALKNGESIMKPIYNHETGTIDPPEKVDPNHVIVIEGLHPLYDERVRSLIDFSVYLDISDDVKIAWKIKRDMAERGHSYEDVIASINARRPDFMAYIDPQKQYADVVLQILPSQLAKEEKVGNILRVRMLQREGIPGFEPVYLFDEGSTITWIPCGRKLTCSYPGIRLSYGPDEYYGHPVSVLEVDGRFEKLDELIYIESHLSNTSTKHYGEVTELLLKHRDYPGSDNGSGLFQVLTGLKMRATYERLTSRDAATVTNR

GAPDH = molecular target: T2, GAPDH (Thermosynechococcus vestitus, UniProt Q8DIW5); experiment: X-ray crystal structure; type: binding
T2 sequence (Q8DIW5 1-337): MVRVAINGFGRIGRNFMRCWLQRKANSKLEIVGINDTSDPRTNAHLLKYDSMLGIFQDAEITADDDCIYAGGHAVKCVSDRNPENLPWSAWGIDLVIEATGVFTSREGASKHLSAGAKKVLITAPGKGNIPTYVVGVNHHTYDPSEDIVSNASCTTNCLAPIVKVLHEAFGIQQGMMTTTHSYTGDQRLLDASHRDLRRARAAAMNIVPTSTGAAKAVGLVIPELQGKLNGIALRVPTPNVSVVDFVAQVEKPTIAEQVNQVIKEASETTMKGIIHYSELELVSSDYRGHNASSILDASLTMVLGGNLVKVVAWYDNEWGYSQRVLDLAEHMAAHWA

GAPDH-CP12 = molecular target: T3, GAPDH-CP12 (Thermosynechococcus vestitus, UniProt Q8DIW5); experiment: X-ray crystal structure; type: binding; conditions: proximal (CP12-occupied) and distal sites
T3 sequence (Q8DIW5 1-337): T2 sequence (Q8DIW5 1-337)
T3 sequence (Q8DHX3 1-75 partner): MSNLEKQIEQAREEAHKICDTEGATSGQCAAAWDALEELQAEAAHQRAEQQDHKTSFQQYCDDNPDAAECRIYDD

Nc1ncnc2c1ncn2[C@@H]1O[C@H](COP(=O)(O)OP(=O)(O)OP(=O)(O)O)[C@@H](O)[C@H]1O [ATP]
ADP production, coupled assay with ADP-hexokinase (PRK; co-substrate ribulose 5-phosphate): measuring ADP production from ATP and ribulose 5-phosphate (Ru5P)

NC(=O)c1ccc[n+]([C@@H]2O[C@H](COP(=O)(O)OP(=O)(O)OC[C@H]3O[C@@H](n4cnc5c(N)ncnc54)[C@H](OP(=O)(O)O)[C@@H]3O)[C@@H](O)[C@H]2O)c1 [NADP^+]
X-ray crystal structure (GAPDH; NAD+ exchanged for NADP+ by turnover): this could be exchanged for NADP^+ by turning over the enzyme

NC(=O)c1ccc[n+]([C@@H]2O[C@H](COP(=O)(O)OP(=O)(O)OC[C@H]3O[C@@H](n4cnc5c(N)ncnc54)[C@H](O)[C@@H]3O)[C@@H](O)[C@H]2O)c1 [NAD^+]
X-ray crystal structure (GAPDH; NAD+ bound from E. coli expression): GAPDH-NAD^+, GAPDH-NADP^+
X-ray crystal structure (GAPDH-CP12): The CP12-bound (proximal) site makes extensive contacts with both NAD^+ and GAPDH

O=C(CO)[C@H](O)[C@H](O)COP(=O)(O)O [ribulose 5-phosphate]
ADP production, coupled assay with ADP-hexokinase (PRK; co-substrate ATP): measuring ADP production from ATP and ribulose 5-phosphate (Ru5P)
